The values that follow come from patent US20180030001A1, “NEW TRIAZINE COMPOUNDS AS PHOTOSTABILIZING AGENTS” (3V Sigma S.P.A., priority 2016, published 2018).

A short description of this data set: UVA:UVB ratio (radiation absorbed 320-400 nm vs 290-320 nm) of triazine compounds. The format is physicochemical. The note with it: versus diethylhexyl butamido triazone and ethylhexyl triazone. The source says:
Typically, the numerical UV-A/UV-B ratio of these compounds, defined as the ratio between the intensity of the radiation absorbed between 320 nm and 400 nm (UVA fraction) and that absorbed between 290 nm and 320 nm (UVB fraction), is greater than 0.20, and preferably greater than 0.30, whereas in the analogous triazine compounds with a 4-aminobenzoate or 4-aminobenzamide substituent different from the substituents described in Formula (IV), it is below about 0.14.
The UVA:UVB ratio is the ratio between the intensity of the radiation absorbed between 320 nm and 400 nm (UVA fraction) and that absorbed between 290 nm and 320 nm (UVB fraction).
As to `CCCCC(CC)COC(=O)c1ccc(NC(=O)c2ccc(Nc3nc(Nc4ccc(C(=O)Nc5ccc(C(=O)OCC(CC)CCCC)cc5)cc4)nc(Nc4ccc(C(=O)NC(C)(C)C)cc4)n3)cc2)cc1` (stereo not drawn) [Compound of formula (V)], the “UVA fraction relative to triazine analogues already known” value was “at least twice as high”.

Take `CCCCC(CC)COC(=O)c1ccc(NC(=O)c2ccc(Nc3nc(Nc4ccc(C(=O)OCC(CC)CCCC)cc4)nc(Nc4ccc(C(=O)OCC(CC)CCCC)cc4)n3)cc2)cc1` (stereo not drawn) [Compound of formula (VII)]: the “UVA fraction relative to triazine analogues already known” value is “at least twice as high”. Regarding `CCCCC(CC)COC(=O)c1ccc(NC(=O)c2ccc(Nc3nc(Nc4ccc(C(=O)NC(C)(C)C)cc4)nc(Nc4ccc(C(=O)OCC(CC)CCCC)cc4)n3)cc2)cc1` (stereo not drawn) [Compound of formula (VI)], the “UVA fraction relative to triazine analogues already known” value is reported as “at least twice as high”.
